Data as given in PubChem BioAssay AID2060611 (Molecular Pharmacology Branch, DTP, NCI, 2025).

System: 628569-122-R-J1-PDC complex spheroid viability
Test: Anticancer human tumor 628569-122-R-J1-PDC patient-derived head and neck squamous carcinoma cell line growth inhibition [CLK]
Conditions: for IC50: curve of first compound; for viability, T/C: stronger effect = lower value
In short: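 Patient-derived tumor cells grown as complex spheroids with HUVEC endothelial cells and mesenchymal stem cells, treated with drug combinations. Concentrations descend in half-log steps from near clinical Cmax, or from 10 microM if Cmax unknown.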

[1] = second compound 0.0316 µM, first compound 0.0316 µM
[2] = second compound 0.0316 µM, first compound 0.1 µM
[3] = second compound 0.0316 µM, first compound 0.316 µM
[4] = second compound 0.0316 µM, first compound 1 µM
[5] = second compound 0.0316 µM, first compound 3.16 µM
[6] = second compound 0.0316 µM, first compound 10 µM
[7] = second compound 0.1 µM, first compound 0.0316 µM
[8] = second compound 0.1 µM, first compound 0.1 µM
[9] = second compound 0.1 µM, first compound 0.316 µM
[10] = second compound 0.1 µM, first compound 1 µM
[11] = second compound 0.1 µM, first compound 3.16 µM
[12] = second compound 0.1 µM, first compound 10 µM
[13] = second compound 0.316 µM, first compound 0.0316 µM
[14] = second compound 0.316 µM, first compound 0.1 µM
[15] = second compound 0.316 µM, first compound 0.316 µM
[16] = second compound 0.316 µM, first compound 1 µM
[17] = second compound 0.316 µM, first compound 3.16 µM
[18] = second compound 0.316 µM, first compound 10 µM
[19] = second compound 1 µM, first compound 0.0316 µM
[20] = second compound 1 µM, first compound 0.1 µM
[21] = second compound 1 µM, first compound 0.316 µM
[22] = second compound 1 µM, first compound 1 µM
[23] = second compound 1 µM, first compound 3.16 µM
[24] = second compound 1 µM, first compound 10 µM
[25] = second compound 3.16 µM, first compound 0.0316 µM
[26] = second compound 3.16 µM, first compound 0.1 µM
[27] = second compound 3.16 µM, first compound 0.316 µM
[28] = second compound 3.16 µM, first compound 1 µM
[29] = second compound 3.16 µM, first compound 3.16 µM
[30] = second compound 3.16 µM, first compound 10 µM
[31] = second compound 10 µM, first compound 0.0316 µM
[32] = second compound 10 µM, first compound 0.1 µM
[33] = second compound 10 µM, first compound 0.316 µM
[34] = second compound 10 µM, first compound 1 µM
[35] = second compound 10 µM, first compound 3.16 µM
[36] = second compound 10 µM, first compound 10 µM
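Note: spheroids exposed to agents for seven days before readout.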
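Throughout, for viability, T/C: 100% = DMSO vehicle control viability.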

`Nc1ccn(C2OC(CO)C(O)C2(F)F)c(=O)n1` (stereo unspecified) + CN1CCN(c2cc(C(=O)Nc3cc4cc(-c5cnn(C)c5)ccc4cn3)ccn2)CC1 gave an IC50 (second compound 0.0316 µM) of over 10000 nM, an IC50 (second compound 0.1 µM) of over 10000 nM and an IC50 (second compound 0.316 µM) of under 31.6 nM. It also gave an IC50 (second compound 1 µM) of under 31.6 nM, an IC50 (second compound 3.16 µM) of under 31.6 nM and an IC50 (second compound 10 µM) of under 31.6 nM. It also gave a viability, T/C [1] of 71.5%, a viability, T/C [2] of 57.1% and a viability, T/C [3] of 55.4%. For the same molecule, the viability, T/C [4] was 58.4%, the viability, T/C [5] was 59% and the viability, T/C [6] was 62.9%. It also gave a viability, T/C [7] of 58.3%, a viability, T/C [8] of 48.6% and a viability, T/C [9] of 52.9%. For the same molecule, the viability, T/C [10] was 56.8%, the viability, T/C [11] was 51.9% and the viability, T/C [12] was 65.2%. For the same molecule, the viability, T/C [13] was 28.5%, the viability, T/C [14] was 31.5% and the viability, T/C [15] was 23.9%. It also gave a viability, T/C [16] of 35.1%, a viability, T/C [17] of 36.1% and a viability, T/C [18] of 29.3%. The viability, T/C [19] was 5.39%, the viability, T/C [20] was 3.49% and the viability, T/C [21] was 4.39%. It also gave a viability, T/C [22] of 4.7%, a viability, T/C [23] of 3.75% and a viability, T/C [24] of 3.77%. It also gave a viability, T/C [25] of 8.67%, a viability, T/C [26] of 5.79% and a viability, T/C [27] of 7.19%. For the same molecule, the viability, T/C [28] was 5%, the viability, T/C [29] was 7.97% and the viability, T/C [30] was 3.35%. For the same molecule, the viability, T/C [31] was 4.52%, the viability, T/C [32] was 4.25% and the viability, T/C [33] was 3.92%. For the same molecule, the viability, T/C [34] was 6.65%, the viability, T/C [35] was 2.05% and the viability, T/C [36] was 1.36%.
Work on `O=C(c1cc(Cc2n[nH]c(=O)c3ccccc23)ccc1F)N1CCN(C(=O)C2CC2)CC1` + CN1CCN(c2cc(C(=O)Nc3cc4cc(-c5cnn(C)c5)ccc4cn3)ccn2)CC1 yielded an IC50 (second compound 0.0316 µM) of 6760 nM, an IC50 (second compound 0.1 µM) of 1210 nM and an IC50 (second compound 0.316 µM) of under 31.6 nM. For the same molecule, the IC50 (second compound 1 µM) was under 31.6 nM, the IC50 (second compound 3.16 µM) was under 31.6 nM and the IC50 (second compound 10 µM) was under 31.6 nM. It also gave a viability, T/C [1] of 91.9%, a viability, T/C [2] of 89.5% and a viability, T/C [3] of 91.2%. It also gave a viability, T/C [4] of 83.3%, a viability, T/C [5] of 56.8% and a viability, T/C [6] of 46.5%. The viability, T/C [7] was 55.8%, the viability, T/C [8] was 56.6% and the viability, T/C [9] was 61.9%. It also gave a viability, T/C [10] of 49.8%, a viability, T/C [11] of 41.5% and a viability, T/C [12] of 33.7%. It also gave a viability, T/C [13] of 34.6%, a viability, T/C [14] of 33.6% and a viability, T/C [15] of 33.9%. For the same molecule, the viability, T/C [16] was 27.7%, the viability, T/C [17] was 16.8% and the viability, T/C [18] was 14.2%. The viability, T/C [19] was 9.74%, the viability, T/C [20] was 5.97% and the viability, T/C [21] was 9.24%. For the same molecule, the viability, T/C [22] was 5%, the viability, T/C [23] was 8.27% and the viability, T/C [24] was 8.76%. For the same molecule, the viability, T/C [25] was 6.83%, the viability, T/C [26] was 7.39% and the viability, T/C [27] was 8.5%. It also gave a viability, T/C [28] of 5.51%, a viability, T/C [29] of 6.5% and a viability, T/C [30] of 8.04%. For the same molecule, the viability, T/C [31] was 3.42%, the viability, T/C [32] was 3.07% and the viability, T/C [33] was 1.85%. For the same molecule, the viability, T/C [34] was 3.59%, the viability, T/C [35] was 3.68% and the viability, T/C [36] was 2.67%.
`O=c1[nH]cc(F)c(=O)[nH]1` + CN1CCN(c2cc(C(=O)Nc3cc4cc(-c5cnn(C)c5)ccc4cn3)ccn2)CC1 was tested, and the IC50 (second compound 0.0316 µM) was over 10000 nM, the IC50 (second compound 0.1 µM) was over 10000 nM and the IC50 (second compound 0.316 µM) was under 31.6 nM. The IC50 (second compound 1 µM) was under 31.6 nM, the IC50 (second compound 3.16 µM) was under 31.6 nM and the IC50 (second compound 10 µM) was under 31.6 nM. The viability, T/C [1] was 84.2%, the viability, T/C [2] was 97.8% and the viability, T/C [3] was 93.7%. For the same molecule, the viability, T/C [4] was 102%, the viability, T/C [5] was 88.8% and the viability, T/C [6] was 69.3%. For the same molecule, the viability, T/C [7] was 64.1%, the viability, T/C [8] was 69.9% and the viability, T/C [9] was 70.5%. It also gave a viability, T/C [10] of 71.6%, a viability, T/C [11] of 64.8% and a viability, T/C [12] of 54.7%. For the same molecule, the viability, T/C [13] was 35.7%, the viability, T/C [14] was 30.7% and the viability, T/C [15] was 37.5%. It also gave a viability, T/C [16] of 44.7%, a viability, T/C [17] of 38.3% and a viability, T/C [18] of 29.8%. It also gave a viability, T/C [19] of 12.8%, a viability, T/C [20] of 6.16% and a viability, T/C [21] of 6.71%. It also gave a viability, T/C [22] of 8.95%, a viability, T/C [23] of 7.13% and a viability, T/C [24] of 5.19%. The viability, T/C [25] was 9.61%, the viability, T/C [26] was 7.33% and the viability, T/C [27] was 9.99%. The viability, T/C [28] was 8.76%, the viability, T/C [29] was 12% and the viability, T/C [30] was 4.06%. For the same molecule, the viability, T/C [31] was 11%, the viability, T/C [32] was 2.54% and the viability, T/C [33] was 4.42%. It also gave a viability, T/C [34] of 2.63%, a viability, T/C [35] of 2.63% and a viability, T/C [36] of 3.59%.
